Measured values taken from the PolyMetriX glass transition set.
± gives the standard deviation of the reports.

Row | Compound | glass transition temperature [°C]
1 | *Oc1ccc(Oc2ccc(C(=O)c3ccc(C(=O)c4ccc(*)cc4)cc3)cc2)cc1-c1ccc(S(=O)(=O)O)cc1 (repeat unit) | 174.00
2 | *CC(*)C(=O)OCCOCC (repeat unit) | -50.00
3 | *CC(*)CC(C)(C)C (repeat unit) | 190.00
4 | *c1ccc2c(c1)C(CCCCCCCC)(CCCCCCCC)c1cc(-c3cc(F)c(*)cc3F)ccc1-2 (repeat unit) | 34.00
5 | *Oc1ccc(C(C)(C)c2ccc(Oc3ccc(C(=O)c4ccc(C(=O)c5ccc(*)c(C(F)(F)F)c5)cc4)cc3C(F)(F)F)cc2)cc1 (repeat unit) | 171.00
6 | *O[Si](C)(C)O[Si](C)(C)O[Si](C)(C)O[Si](C)(C)O[Si](C)(C)O[Si](C)(C)OC1=C(*)c2cccc3cccc1c23 (repeat unit) | -93.00
7 | *CCCCCCCCCCCOC(=O)c1cc(OCCCCCCCCCCOc2ccc(/N=N/c3ccc(OC)cc3)cc2)cc(C(=O)OCCCCCCCCCCCOc2ccc(-c3ccc(O*)cc3)cc2)c1 (repeat unit) | 53.00
8 | *OC(COC(=O)c1ccc(-c2ccc(C(*)=O)cc2)cc1)COc1ccc(/N=N/c2ccc(C#N)cc2)cc1 (repeat unit) | 141.00
9 | *C(=O)c1ccc2c(c1)C(=O)N(c1ccc(C(=O)c3cccc(N4C(=O)c5ccc(*)cc5C4=O)c3)cc1)C2=O (repeat unit) | 282.00 ± 3
10 | *c1ccc(Oc2ccc(NC(=O)c3ccc4c(c3)C(=O)N(c3ccc(Cc5ccc(N6C(=O)c7ccc(C(=O)Nc8ccc(Oc9ccc(C%10(*)NC(=O)c%11ccccc%11%10)cc9)cc8)cc7C6=O)cc5)cc3)C4=O)cc2)cc1 (repeat unit) | 302.00
11 | *CCCCCOC(=O)OCCCCCN1C(=O)c2ccc(-c3ccc4c(c3)C(=O)N(*)C4=O)cc2C1=O (repeat unit) | 84.00
12 | *c1ccc(-c2nc3cc(S(=O)(=O)c4ccc5nc(-c6ccccc6)c(*)nc5c4)ccc3nc2-c2ccccc2)cc1 (repeat unit) | 345.00
13 | *c1ccc(C(=O)OCCCCCCOc2ccc(/C=C3\CCCC/C(=C\c4ccc(OCCCCCCOC(=O)c5ccc(-c6nnc(*)o6)cc5)cc4)C3=O)cc2)cc1 (repeat unit) | 104.00
14 | *CC1(*)CCCCC1 (repeat unit) | 100.00
15 | *CCOC(=O)c1ccc(-c2ccc(C(=O)O*)cc2)cc1 (repeat unit) | 40.00
16 | *CCCCCCCCN(C)c1ccc(C(=O)c2ccc(N(*)C)cc2)cc1 (repeat unit) | 50.00
17 | *CCCCCCCCCCCCCCNC(=O)CCc1ccc(CCC(=O)N*)cc1 (repeat unit) | 85.00
18 | *CC(*)c1ccc(S(=O)(=O)OCCC)cc1 (repeat unit) | 217.00
19 | *c1ccc(Oc2ccc(Oc3ccc(N4C(=O)c5ccc(Oc6ccccc6Oc6ccc7c(c6)C(=O)N(*)C7=O)cc5C4=O)cc3)cc2)cc1 (repeat unit) | 202.00
20 | *C(=O)Nc1cccc(NC(=O)c2ccc3c(c2)C(=O)N(c2cccc(N4C(=O)c5ccc(*)cc5C4=O)c2)C3=O)n1 (repeat unit) | 339.00
21 | *Oc1ccc(CC(NC(=O)Cc2ccc(OC(=O)CCCCCCCCC(*)=O)cc2)C(=O)OCCCCCC)cc1 (repeat unit) | 23.00

Row | Compound | glass transition temperature [°C]
22 | *CC(*)C[Si](C)(C)C (repeat unit) | 114.00
23 | *CCN(CCOC(=O)NC(C)(C)c1cccc(C(C)(C)NC(=O)O*)c1)c1ccc(/N=N/c2ccc([N+](=O)[O-])cc2)cc1 (repeat unit) | 103.00
24 | *c1cc(Br)c(-c2c(Br)cc(N3C(=O)c4ccc(-c5ccc6c(c5)C(=O)N(*)C6=O)cc4C3=O)cc2C(=O)OCCCCCCCCCCCCCC)c(C(=O)OCCCCCCCCCCCCCC)c1 (repeat unit) | 98.00
25 | *c1ccc(Oc2ccc(P(C)(=O)c3ccc(Oc4ccc(C5(*)OC(=O)c6ccccc65)cc4)cc3)cc2)cc1 (repeat unit) | 263.00
26 | *CC(*)c1cc(-c2ccc(C(=O)OC(C)CCCCCC)cc2)ccc1-c1ccc(C(=O)OC(C)CCCCCC)cc1 (repeat unit) | 102.00
27 | *CCCNC(=O)O* (repeat unit) | 26.00
28 | *c1ccc(NC2CC(=O)N(c3ccc(Cc4ccc(N5C(=O)CC(Nc6ccc(-c7nc(-c8ccc(/C=C/c9ccc([N+](=O)[O-])cc9)cc8)[nH]c7*)cc6)C5=O)cc4)cc3)C2=O)cc1 (repeat unit) | 250.00
29 | *Oc1ccc(/N=N/c2ccc(S(=O)(=O)c3ccc(/N=N/c4ccc(OC(=O)c5ccc(/N=N/c6ccc(C(*)=O)cc6)cc5)cc4)cc3[N+](=O)[O-])c([N+](=O)[O-])c2)cc1 (repeat unit) | 150.00
30 | *c1ccc(Oc2ccc(Oc3ccc(-c4nnc(*)c5c(-c6ccc(F)cc6)c(-c6ccc(F)cc6)c(-c6ccc(F)cc6)c(-c6ccc(F)cc6)c45)cc3)cc2)cc1 (repeat unit) | 309.00
31 | *c1ccc(O)c(N2C(=O)c3ccc(Oc4ccc(C(C)(C)c5ccc(Oc6ccc7c(c6)C(=O)N(*)C7=O)cc5)cc4)cc3C2=O)c1 (repeat unit) | 246.00
32 | *CCCCCCCCCCSSSS* (repeat unit) | -76.00
33 | *CCOCCOCCOCCOC(=O)CCSCCC(=O)O* (repeat unit) | -38.00
34 | *CC(*)(C)C(=O)OC1CC(C)CC(C)(C)C1 (repeat unit) | 125.00
35 | *c1cccc(C(=O)Nc2ccc(Oc3ccc(S(=O)(=O)c4ccc(Oc5ccc(NC(=O)c6cccc(N7C(=O)c8ccc(-c9cccc%10c9C(=O)N(*)C%10=O)cc8C7=O)c6)cc5)cc4)cc3)cc2)c1 (repeat unit) | 263.00
36 | *c1ccc(Oc2cccc(N3C(=O)c4ccc(Oc5ccc6ccc(Oc7ccc8c(c7)C(=O)N(*)C8=O)cc6c5)cc4C3=O)c2)cc1 (repeat unit) | 221.00
37 | *CCCC(C)(C)CNC(=O)CCCCCC(=O)N* (repeat unit) | 70.50
38 | *c1ccc(N(c2ccc(C#N)cc2)c2ccc(N3C(=O)c4ccc(Oc5ccc(C6(c7ccc(Oc8ccc9c(c8)C(=O)N(*)C9=O)cc7)CCCCC6)cc5)cc4C3=O)cc2)cc1 (repeat unit) | 243.00
39 | *CC(*)c1ccc(Cl)c(F)c1 (repeat unit) [Poly(3-fluoro-4-chloro styrene) ] | 122 ± 0.6
40 | *CCCCOC(=O)c1ccc(-c2ccc(-c3ccc(C(=O)O*)cc3)cc2)cc1 (repeat unit) | 180.00
41 | *CCCCCCCCOc1ccc(/C=C2\CC/C(=C\c3ccc(OCCCCCCCCOP(=O)(O*)OCC)c(OC)c3)C2=O)cc1OC (repeat unit) | 62.00
42 | *Oc1ccc(CC(NC(=O)CCc2ccc(OC(=O)CCCC(*)=O)cc2)C(=O)OCCCCCCCCCCCC)cc1 (repeat unit) | 27.50

Row | Compound | glass transition temperature [°C]
43 | *Oc1ccc(Oc2ccc(C(=O)c3ccc(C(=O)c4ccc(*)cc4)cc3)cc2)cc1-c1cccc(C)c1 (repeat unit) | 159.00
44 | *c1ccc(-c2ccc(-c3cc(-c4ccccc4)c4cc(C5(c6ccc7nc(*)cc(-c8ccccc8)c7c6)c6ccccc6C(=O)c6ccccc65)ccc4n3)cc2)cc1 (repeat unit) | 350.00
45 | *c1ccc(Oc2ccc(-n3c(=O)c4c(Oc5ccc(OCCCCCCCC)cc5)c5c(=O)n(*)c(=O)c5c(Oc5ccc(OCCCCCCCC)cc5)c4c3=O)cc2)cc1 (repeat unit) | 234.50
46 | *C(=O)c1ccc2c(c1)C(=O)N(c1cccc(Nc3nc(Nc4cccc(N5C(=O)c6ccc(*)cc6C5=O)c4)nc(N(C)C)n3)c1)C2=O (repeat unit) | 294.00
47 | *c1ccc(Oc2ccc(Oc3ccc(P(=O)(c4ccccc4)c4ccc(Oc5ccc(Oc6ccc(-c7nc8cc9sc(*)nc9cc8s7)cc6)cc5)cc4)cc3)cc2)cc1 (repeat unit) | 255.00
48 | *c1ccc2c(c1)C(=O)N(c1cc(N3C(=O)c4ccc(C(*)(C(F)(F)F)C(F)(F)F)cc4C3=O)cc(C(F)(F)F)c1)C2=O (repeat unit) | 290.50 ± 9.2
49 | *C(=O)c1ccc2c(c1)C(=O)N(c1ccc(Cc3ccc(N4C(=O)c5ccc(*)cc5C4=O)c(C(C)(C)C)c3)cc1C(C)(C)C)C2=O (repeat unit) | 213.00
50 | *CCc1ccc(*)o1 (repeat unit) | 25.50
51 | *C(=O)c1ccc(Oc2ccc(C3(c4ccc(Oc5ccc(*)s5)cc4)c4ccccc4-c4ccccc43)cc2)cc1 (repeat unit) | 195.00
52 | *CC(*)N (repeat unit) | 57.00
53 | *CCCCCCCCOc1c(OC)cc(/C=C/c2cc(CCCCCC)c(/C=C/c3cc(OC)c(O*)c(OC)c3)cc2CCCCCC)cc1OC (repeat unit) | 21.00
54 | *Nc1ccc(Cc2ccc(NC(=O)c3cc(NC(=O)CCCN4C(=O)c5ccccc5C4=O)cc(C(*)=O)c3)cc2)cc1 (repeat unit) | 220.00
55 | *CC(*)(C)C(=O)OC(C(F)(F)F)C(F)(F)F (repeat unit) | 75.00
56 | *Oc1ccc(NC(=O)c2ccc(S(=O)(=O)c3ccc(C(=O)Nc4ccc(Oc5ccc(C6(c7ccc(*)cc7)CC7CCC6C7)cc5)cc4)cc3)cc2)cc1 (repeat unit) | 287.00
57 | *c1ccc2c(c1)C(=O)N(c1ccc(OC(C)COc3ccc(N4C(=O)c5ccc(C(*)(C(F)(F)F)C(F)(F)F)cc5C4=O)cc3)cc1)C2=O (repeat unit) | 234.00
58 | *O[Si](C)(C)O[Si](C)(C)O[Si](C)(C)O[Si](C)(C)Oc1c(*)c2ccccc2c2ccccc12 (repeat unit) | -35.00
59 | *CC(*)c1cccc(C)c1 (repeat unit) [Poly(m-methyl styrene) ] | 95 ± 11
60 | *Cc1ccccc1[Si](*)(c1ccccc1)c1ccccc1 (repeat unit) | 122.00
61 | *Oc1cccc(NC(=O)c2ccc([Si](C)(C)c3ccc(C(*)=O)cc3)cc2)c1 (repeat unit) | 220.00
